Assay results as given in ChEMBL document CHEMBL1201862, “PubChem BioAssay data set” (2004).
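Five compound concentrations were applied to cells in 96-well plates for 48 hours; endpoints were derived by simple linear interpolation of the resulting dose-response curve. Here, GI50 denotes the concentration required for 50% inhibition of growth.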 Active and inactive are the calls of the source. No stated cut-off is given here; in the data, active = GI50 up to about 1.1 µM and inactive = higher.

What was measured:
Test in all cases: inhibition of tumour cell growth, NCI panel, 48 h
NCI/ADR-RES = tested on: NCI/ADR-RES
TK-10 = tested on: TK-10
MDA-MB-435 = tested on: MDA-MB-435
LOX IMVI = tested on: LOX IMVI
HCT-15 = tested on: HCT-15
NCI-H226 = tested on: NCI-H226
PC-3 = tested on: PC-3
786-0 = tested on: 786-0
RPMI-8226 = tested on: RPMI-8226
Malme-3M = tested on: Malme-3M
OVCAR-3 = tested on: OVCAR-3
UACC-62 = tested on: UACC-62
CAKI-1 = tested on: CAKI-1
UACC-257 = tested on: UACC-257
HOP-62 = tested on: HOP-62
SK-OV-3 = tested on: SK-OV-3
BT-549 = tested on: BT-549
KM12 = tested on: KM12
A498 = tested on: A498

| SMILES | GI50 (NCI/ADR-RES) | GI50 (TK-10) | GI50 (MDA-MB-435) | GI50 (LOX IMVI) | GI50 (HCT-15) | GI50 (NCI-H226) | GI50 (PC-3) | GI50 (786-0) | GI50 (RPMI-8226) | GI50 (Malme-3M) | GI50 (OVCAR-3) | GI50 (UACC-62) | GI50 (CAKI-1) | GI50 (UACC-257) | GI50 (HOP-62) | GI50 (SK-OV-3) | GI50 (BT-549) | GI50 (KM12) | GI50 (A498) |
| --- | --- | --- | --- | --- | --- | --- | --- | --- | --- | --- | --- | --- | --- | --- | --- | --- | --- | --- | --- |
| NC(Cc1ccc(N(CCCl)CCCl)cc1)C(=O)NC(CCC(=O)O)C(=O)O (centres undefined) | > 100 µM (inactive) | > 100 µM (inactive) | > 100 µM (inactive) | > 100 µM (inactive) | > 100 µM | > 100 µM (inactive) | > 100 µM (inactive) | > 100 µM (inactive) | > 100 µM (inactive) | > 100 µM (inactive) | > 100 µM (inactive) | > 100 µM (inactive) | > 100 µM (inactive) | > 100 µM (inactive) | > 100 µM (inactive) | > 100 µM (inactive) | > 100 µM (inactive) | > 100 µM (inactive) | > 100 µM (inactive) |
| COc1cc2[nH]c(=O)c3cc(-c4ccccc4)cc4c(Cl)nc(c1OC)c2c43 | 7.35 µM (inactive) | 29.6 µM (inactive) | 2.81 µM (inactive) | 6.78 µM (inactive) | 9.55 µM | > 70.1 µM (inactive) | 4.86 µM (inactive) | 6.59 µM (inactive) | 13.2 µM (inactive) | 6.32 µM (inactive) | 3.79 µM (inactive) | 14.1 µM (inactive) | 24.4 µM (inactive) | 4.69 µM (inactive) | 32.6 µM (inactive) | > 47.8 µM (inactive) | 43.2 µM (inactive) | 20 µM (inactive) | > 100 µM (inactive) |
| CCc1cn(C2CC(CO)C(CO)S2)c(=O)[nH]c1=O (centres undefined) | > 100 µM (inactive) | > 100 µM (inactive) | > 100 µM (inactive) | > 100 µM (inactive) | > 100 µM | > 100 µM (inactive) | > 100 µM (inactive) | > 100 µM (inactive) | > 100 µM (inactive) | > 100 µM (inactive) | > 100 µM (inactive) | > 100 µM (inactive) | > 100 µM (inactive) | > 100 µM (inactive) | > 100 µM (inactive) | > 100 µM (inactive) | > 100 µM (inactive) | > 100 µM (inactive) | > 100 µM (inactive) |
| Cc1cc2nc(O)c(C(C)C(=O)c3ccc(Cl)cc3)nc2cc1C (centres undefined) | 28.6 µM (inactive) | 27 µM (inactive) | 20.1 µM (inactive) | 35.6 µM (inactive) | 44.7 µM | 35 µM (inactive) | 31 µM (inactive) | 27.6 µM (inactive) | 43.2 µM (inactive) | 71.6 µM (inactive) | 49.1 µM (inactive) | 46.9 µM (inactive) | 81.7 µM (inactive) | 16.6 µM (inactive) | 49.8 µM (inactive) | > 100 µM (inactive) | 54.5 µM (inactive) | 29.8 µM (inactive) | 23.1 µM (inactive) |
| CCCCC(=O)Nc1ccc2cc(C(=O)OC)c(Cl)nc2n1 | > 100 µM (inactive) | > 71.3 µM (inactive) | > 100 µM (inactive) | > 100 µM (inactive) | > 100 µM | > 100 µM (inactive) | 19.7 µM (inactive) | > 100 µM (inactive) | 9.75 µM (inactive) | > 100 µM (inactive) | 7.59 µM (inactive) | > 100 µM (inactive) | > 60.7 µM (inactive) | 43.7 µM (inactive) | 7.11 µM (inactive) | > 100 µM (inactive) | > 100 µM (inactive) | 3.15 µM (inactive) | 37.1 µM (inactive) |
| NCCCCNCCCNC(=O)CNC(=O)CC(O)C(N)CCCC(NC(=O)C(CN)NC(=O)C(O)CNC(=O)CC(N)c1ccc(O)cc1)C(=O)O (centres undefined) | > 10 µM (inactive) | > 10 µM (inactive) | > 10 µM (inactive) | > 10 µM (inactive) | > 10 µM | > 10 µM (inactive) | > 10 µM (inactive) | > 10 µM (inactive) | > 10 µM (inactive) | > 10 µM (inactive) | > 10 µM (inactive) | > 10 µM (inactive) | > 10 µM (inactive) | > 10 µM (inactive) | > 10 µM (inactive) | > 10 µM (inactive) | > 10 µM (inactive) | > 10 µM (inactive) | > 10 µM (inactive) |
| O=C1CC(c2ccc(O)cc2)C2(O1)C(=O)OC(C(O)CO)C2O (centres undefined) | > 100 µM (inactive) | > 100 µM (inactive) | > 100 µM (inactive) | > 100 µM (inactive) | > 100 µM | > 100 µM (inactive) | > 100 µM (inactive) | > 100 µM (inactive) | > 100 µM (inactive) | 96.2 µM (inactive) | > 100 µM (inactive) | > 100 µM (inactive) | > 100 µM (inactive) | > 100 µM (inactive) | > 100 µM (inactive) | > 100 µM (inactive) | > 100 µM (inactive) | > 100 µM (inactive) | > 100 µM (inactive) |
| O=S(=O)(O)c1cc(S(=O)(=O)O)c2c(/N=N/c3cccc4ccccc34)c(O)ccc2c1 | > 100 µM (inactive) | > 100 µM (inactive) | > 100 µM (inactive) | > 100 µM (inactive) | > 100 µM | > 100 µM (inactive) | > 100 µM (inactive) | > 100 µM (inactive) | > 100 µM (inactive) | > 100 µM (inactive) | > 100 µM (inactive) | > 100 µM (inactive) | > 100 µM (inactive) | > 100 µM (inactive) | > 100 µM (inactive) | > 100 µM (inactive) | > 100 µM (inactive) | > 100 µM (inactive) | > 100 µM (inactive) |
| C[C@]12CCC3C4=C(CCC3C1CCC2=O)C(=O)[C@H]1O[C@H]1C4=O (some centres undefined) | 4.02 µM (inactive) | 3.35 µM (inactive) | 11.8 µM (inactive) | 1.89 µM (inactive) | 1.36 µM | 2.18 µM (inactive) | 4.18 µM (inactive) | 1.83 µM (inactive) | 0.641 µM (active) | 21.6 µM (inactive) | 1.46 µM (inactive) | 2.94 µM (inactive) | 0.275 µM (active) | 17.4 µM (inactive) | 3.27 µM (inactive) | 13.9 µM (inactive) | 1.98 µM (inactive) | 5.43 µM (inactive) | 17.1 µM (inactive) |
| COc1ccc2sc(-n3nc4ccccc4c3Nc3nc4ccc(OC)cc4s3)nc2c1 | 2.26 µM (inactive) | 2.62 µM (inactive) | 3.24 µM (inactive) | 5.47 µM (inactive) | 10.5 µM | 2.9 µM (inactive) | 2.89 µM (inactive) | 1.64 µM (inactive) | 0.887 µM (active) | 3.8 µM (inactive) | 1.79 µM (inactive) | 2.95 µM (inactive) | 1.28 µM (inactive) | 4.1 µM (inactive) | 1.79 µM (inactive) | 1.94 µM (inactive) | 2.13 µM (inactive) | 3.99 µM (inactive) | 0.873 µM (active) |
| Cc1cc(C)n(CC(Cn2nc(C)cc2C)=C(/C(Cl)=C(/Cl)Nc2ccc([N+](=O)[O-])cc2)[N+](=O)[O-])n1 | 8.07 µM (inactive) | 3.78 µM (inactive) | 1.84 µM (inactive) | 2.3 µM (inactive) | 4.73 µM | 10.2 µM (inactive) | 3.42 µM (inactive) | 5.06 µM (inactive) | 1.93 µM (inactive) | 3.61 µM (inactive) | 4 µM (inactive) | 3.9 µM (inactive) | 1.81 µM (inactive) | 3.4 µM (inactive) | 4.46 µM (inactive) | 3.37 µM (inactive) | 3.33 µM (inactive) | 1.81 µM (inactive) | 3.37 µM (inactive) |
